Source: PubChem BioAssay (NCI)
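Cells were grown in 96-well plates and exposed to each compound for 48 hours at five concentrations; endpoints were interpolated linearly between bracketing concentrations, or set to the highest concentration if not reached. Abbreviation: GI50, concentration required for 50% inhibition of growth. The concentration for full growth arrest is given as TGI.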

Assays:
Test in all cases: NCI anticancer screen, dose series, 48 h
[1] = tested on: 786-0 renal
[2] = tested on: A498 renal
[3] = tested on: A549 NSCLC
[4] = tested on: ACHN renal
[5] = tested on: BT-549 breast
[6] = tested on: CAKI-1 renal
[7] = tested on: CCRF-CEM leukemia
[8] = tested on: COLO 205 colon
[9] = tested on: DU-145 prostate
[10] = tested on: EKVX NSCLC
[11] = tested on: HCC-2998 colon
[12] = tested on: HCT-116 colon
[13] = tested on: HCT-15 colon
[14] = tested on: HL-60(TB) leukemia
[15] = tested on: HOP-62 NSCLC
[16] = tested on: HOP-92 NSCLC
[17] = tested on: HS 578T breast
[18] = tested on: HT29 colon
[19] = tested on: IGROV1 ovarian
[20] = tested on: K-562 leukemia
[21] = tested on: KM12 colon
[22] = tested on: LOX IMVI melanoma
[23] = tested on: M14 melanoma
[24] = tested on: MALME-3M melanoma
[25] = tested on: MCF7 breast
[26] = tested on: MDA-MB-231 breast
[27] = tested on: MDA-MB-435
[28] = tested on: MOLT-4 leukemia
[29] = tested on: NCI-H226 lung
[30] = tested on: NCI-H23 lung
[31] = tested on: NCI-H460 lung
[32] = tested on: NCI-H522 lung
[33] = tested on: NCI/ADR-RES ovarian
[34] = tested on: OVCAR-3 ovarian
[35] = tested on: OVCAR-4 ovarian
[36] = tested on: OVCAR-5 ovarian
[37] = tested on: OVCAR-8 ovarian
[38] = tested on: PC-3 prostate
[39] = tested on: RPMI-8226 leukemia
[40] = tested on: RXF 393 renal
[41] = tested on: SF-268 CNS
[42] = tested on: SF-295 CNS
[43] = tested on: SF-539 CNS
[44] = tested on: SK-MEL-2 melanoma
[45] = tested on: SK-MEL-28 melanoma
[46] = tested on: SK-MEL-5 melanoma
[47] = tested on: SK-OV-3 ovarian
[48] = tested on: SN12C renal
[49] = tested on: SNB-19 CNS
[50] = tested on: SNB-75 CNS
[51] = tested on: SR leukemia
[52] = tested on: SW-620 colon
[53] = tested on: T-47D breast
[54] = tested on: TK-10 renal
[55] = tested on: U251 CNS
[56] = tested on: UACC-257 melanoma
[57] = tested on: UACC-62 melanoma
[58] = tested on: UO-31 renal

SMILES: COC(=O)[C@@H](C)CNS(=O)(=O)N(c1cc(C(F)(F)F)cc(C(F)(F)F)c1)C1CCN(Cc2ccc(F)cc2)CC1
- GI50 [1]: 11.2 µM
- TGI [1]: 24 µM
- GI50 [2]: 12.8 µM
- TGI [2]: 26.2 µM
- GI50 [3]: 14 µM
- TGI [3]: 31 µM
- GI50 [4]: 14 µM
- TGI [4]: 30 µM
- GI50 [5]: 8.34 µM
- TGI [5]: 22.9 µM
- GI50 [6]: 7.23 µM
- TGI [6]: 22.3 µM
- GI50 [7]: 12.8 µM
- TGI [7]: 30.7 µM
- GI50 [8]: 1.88 µM
- TGI [8]: 3.59 µM
- GI50 [9]: 13.4 µM
- TGI [9]: 27.4 µM
- GI50 [10]: 12.2 µM
- TGI [10]: 28.9 µM
- GI50 [11]: 3.01 µM
- TGI [11]: 11.7 µM
- GI50 [12]: 4.41 µM
- TGI [12]: 16.4 µM
- GI50 [13]: 4.42 µM
- TGI [13]: 17.9 µM
- GI50 [14]: 4.69 µM
- TGI [14]: 18.2 µM
- GI50 [15]: 15 µM
- TGI [15]: 29 µM
- GI50 [16]: 5.76 µM
- TGI [16]: 20 µM
- GI50 [17]: 11.3 µM
- TGI [17]: 27.1 µM
- GI50 [18]: 3.78 µM
- TGI [18]: 14.6 µM
- GI50 [19]: 18.8 µM
- TGI [19]: 44.9 µM
- GI50 [20]: 4.63 µM
- TGI [20]: 16 µM
- GI50 [21]: 4.92 µM
- TGI [21]: 17.6 µM
- GI50 [22]: 8.1 µM
- TGI [22]: 25 µM
- GI50 [23]: 3.75 µM
- TGI [23]: 15 µM
- GI50 [24]: 6.89 µM
- TGI [24]: 22.3 µM
- GI50 [25]: 6.91 µM
- TGI [25]: 21.9 µM
- GI50 [26]: 12.7 µM
- TGI [26]: 29.3 µM
- GI50 [27]: 10.2 µM
- TGI [27]: 24.8 µM
- GI50 [28]: 11.5 µM
- TGI [28]: 27.4 µM
- GI50 [29]: 13.2 µM
- TGI [29]: 30.2 µM
- GI50 [30]: 12.2 µM
- TGI [30]: 25.9 µM
- GI50 [31]: 7.13 µM
- TGI [31]: 22.1 µM
- GI50 [32]: 14.9 µM
- TGI [32]: 37 µM
- GI50 [33]: 10.7 µM
- TGI [33]: 23.4 µM
- GI50 [34]: 10.4 µM
- TGI [34]: 23 µM
- GI50 [35]: 11.9 µM
- TGI [35]: 24.7 µM
- GI50 [36]: 15.8 µM
- TGI [36]: 29.7 µM
- GI50 [37]: 14.6 µM
- TGI [37]: 33.4 µM
- GI50 [38]: 7.61 µM
- TGI [38]: 20.8 µM
- GI50 [39]: 7.57 µM
- TGI [39]: 25.6 µM
- GI50 [40]: 10.6 µM
- TGI [40]: 23.7 µM
- GI50 [41]: 11.5 µM
- TGI [41]: 26.3 µM
- GI50 [42]: 10.5 µM
- TGI [42]: 24.5 µM
- GI50 [43]: 13.2 µM
- TGI [43]: 26.4 µM
- GI50 [44]: 21 µM
- TGI [44]: 41 µM
- GI50 [45]: 14 µM
- TGI [45]: 27.8 µM
- GI50 [46]: 3.19 µM
- TGI [46]: 12 µM
- GI50 [47]: 15.5 µM
- TGI [47]: 29 µM
- GI50 [48]: 4.69 µM
- TGI [48]: 18.5 µM
- GI50 [49]: 13 µM
- TGI [49]: 25.8 µM
- GI50 [50]: 6.24 µM
- TGI [50]: 20.4 µM
- GI50 [51]: 3.81 µM
- TGI [51]: 9.22 µM
- GI50 [52]: 11.1 µM
- TGI [52]: 24.9 µM
- GI50 [53]: 5.34 µM
- TGI [53]: 19.6 µM
- GI50 [54]: 17.2 µM
- TGI [54]: 32.7 µM
- GI50 [55]: 10.2 µM
- TGI [55]: 27.9 µM
- GI50 [56]: 16.4 µM
- TGI [56]: 30.8 µM
- GI50 [57]: 11 µM
- TGI [57]: 24.6 µM
- GI50 [58]: 11.7 µM
- TGI [58]: 26 µM

SMILES: COc1ccc(Nc2c3ccccc3nc3occc23)cc1
- GI50 [1]: 5.83 µM
- TGI [1]: > 51.5 µM
- GI50 [2]: 4.5 µM
- TGI [2]: 21.8 µM
- GI50 [3]: 3.26 µM
- TGI [3]: 41.6 µM
- GI50 [4]: 9.95 µM
- TGI [4]: > 80.6 µM
- GI50 [5]: 18.4 µM
- TGI [5]: 45.8 µM
- GI50 [6]: 2.93 µM
- TGI [6]: > 42 µM
- GI50 [7]: 1.27 µM
- TGI [7]: > 24.7 µM
- GI50 [8]: 2 µM
- GI50 [9]: 14.2 µM
- TGI [9]: > 100 µM
- GI50 [10]: 18.1 µM
- TGI [10]: > 52.7 µM
- GI50 [11]: 0.541 µM
- TGI [11]: 12.2 µM
- GI50 [12]: 1.54 µM
- TGI [12]: > 32.3 µM
- GI50 [13]: 0.336 µM
- TGI [13]: 14.1 µM
- GI50 [14]: 1.47 µM
- GI50 [15]: 5.42 µM
- TGI [15]: 30.1 µM
- GI50 [16]: 7.36 µM
- TGI [16]: 31.5 µM
- GI50 [17]: 6.23 µM
- TGI [17]: > 67.6 µM
- GI50 [18]: 1.49 µM
- GI50 [19]: 7.66 µM
- TGI [19]: > 100 µM
- GI50 [20]: 0.292 µM
- GI50 [21]: 0.274 µM
- TGI [21]: 5.43 µM
- GI50 [22]: 6.14 µM
- TGI [22]: 59.9 µM
- GI50 [23]: 2.14 µM
- TGI [23]: > 43.1 µM
- GI50 [24]: 2.31 µM
- TGI [24]: 34.3 µM
- GI50 [25]: 0.682 µM
- TGI [25]: 36.1 µM
- GI50 [26]: 3.66 µM
- TGI [26]: 22.7 µM
- GI50 [27]: 0.171 µM
- GI50 [28]: 1.55 µM
- TGI [28]: > 33 µM
- GI50 [29]: 31.9 µM
- TGI [29]: > 100 µM
- GI50 [30]: 3.72 µM
- TGI [30]: > 27.6 µM
- GI50 [31]: 0.87 µM
- TGI [31]: 28.1 µM
- GI50 [32]: 2.35 µM
- TGI [32]: > 100 µM
- GI50 [33]: 0.921 µM
- TGI [33]: > 36.8 µM
- GI50 [34]: 0.366 µM
- TGI [34]: 4.2 µM
- GI50 [35]: 16.9 µM
- TGI [35]: > 100 µM
- GI50 [36]: 13.7 µM
- TGI [36]: > 63.4 µM
- GI50 [37]: 5.71 µM
- TGI [37]: > 100 µM
- GI50 [38]: 3.25 µM
- TGI [38]: > 39.5 µM
- GI50 [39]: 1.12 µM
- TGI [39]: 12.4 µM
- GI50 [40]: 1.85 µM
- TGI [40]: 17.7 µM
- GI50 [41]: 3.68 µM
- TGI [41]: 34 µM
- GI50 [42]: 0.533 µM
- TGI [42]: 8.09 µM
- GI50 [43]: 2.84 µM
- TGI [43]: 20.8 µM
- GI50 [45]: 3.06 µM
- TGI [45]: 22.8 µM
- GI50 [46]: 1.32 µM
- TGI [46]: 13.4 µM
- GI50 [47]: 2.21 µM
- TGI [47]: 14.9 µM
- GI50 [48]: 2.45 µM
- TGI [48]: 23.4 µM
- GI50 [49]: 2.87 µM
- TGI [49]: > 48.5 µM
- GI50 [50]: 9.4 µM
- TGI [50]: > 100 µM
- GI50 [51]: > 100 µM
- TGI [51]: > 100 µM
- GI50 [52]: 2.9 µM
- TGI [52]: 39.5 µM
- TGI [53]: > 38.2 µM
- GI50 [54]: 1.61 µM
- TGI [54]: 20.6 µM
- GI50 [55]: 3.85 µM
- TGI [55]: > 100 µM
- GI50 [56]: 9.98 µM
- TGI [56]: 28.9 µM
- GI50 [57]: 0.342 µM
- GI50 [58]: 22.5 µM
- TGI [58]: > 100 µM
